{"source": "ChEMBL document CHEMBL1201862", "about": "“PubChem BioAssay data set” (2004)", "test_in_all_cases": "NCI anticancer screen, dose series, 48 h", "key": {"DU-145": {"test_system": "DU-145"}, "MOLT-4": {"test_system": "MOLT-4"}, "UACC-257": {"test_system": "UACC-257"}, "T47D": {"test_system": "T47D"}, "SK-MEL-5": {"test_system": "SK-MEL-5"}, "A498": {"test_system": "A498"}, "MDA-N": {"test_system": "MDA-N"}, "SNB-19": {"test_system": "SNB-19"}, "HOP-92": {"test_system": "HOP-92"}, "TK-10": {"test_system": "TK-10"}, "OVCAR-4": {"test_system": "OVCAR-4"}, "MDA-MB-231": {"test_system": "MDA-MB-231"}, "CAKI-1": {"test_system": "CAKI-1"}, "SF-295": {"test_system": "SF-295"}, "NCI-H460": {"test_system": "NCI-H460"}, "BT-549": {"test_system": "BT-549"}, "Hs-578T": {"test_system": "Hs-578T"}, "SF-539": {"test_system": "SF-539"}, "SNB-75": {"test_system": "SNB-75"}, "IGROV-1": {"test_system": "IGROV-1"}, "UACC-62": {"test_system": "UACC-62"}, "ACHN": {"test_system": "ACHN"}, "SW-620": {"test_system": "SW-620"}, "SR": {"test_system": "SR"}, "SK-OV-3": {"test_system": "SK-OV-3"}, "HCT-15": {"test_system": "HCT-15"}, "SK-MEL-2": {"test_system": "SK-MEL-2"}, "RPMI-8226": {"test_system": "RPMI-8226"}, "PC-3": {"test_system": "PC-3"}, "NCI-H522": {"test_system": "NCI-H522"}, "MCF7": {"test_system": "MCF7"}, "NCI/ADR-RES": {"test_system": "NCI/ADR-RES"}, "OVCAR-8": {"test_system": "OVCAR-8"}, "Malme-3M": {"test_system": "Malme-3M"}, "SN12C": {"test_system": "SN12C"}, "COLO 205": {"test_system": "COLO 205"}, "LOX IMVI": {"test_system": "LOX IMVI"}, "EKVX": {"test_system": "EKVX"}, "HT-29": {"test_system": "HT-29"}, "NCI-H226": {"test_system": "NCI-H226"}, "OVCAR-5": {"test_system": "OVCAR-5"}, "HCT-116": {"test_system": "HCT-116"}, "M14": {"test_system": "M14"}, "SF-268": {"test_system": "SF-268"}, "HOP-62": {"test_system": "HOP-62"}, "KM12": {"test_system": "KM12"}, "SK-MEL-28": {"test_system": "SK-MEL-28"}, "U-251": {"test_system": "U-251"}, "K562": {"test_system": "K562"}, "OVCAR-3": {"test_system": "OVCAR-3"}, "NCI-H23": {"test_system": "NCI-H23"}, "786-0": {"test_system": "786-0"}, "UO-31": {"test_system": "UO-31"}, "RXF 393": {"test_system": "RXF 393"}, "MDA-MB-435": {"test_system": "MDA-MB-435"}, "HCC 2998": {"test_system": "HCC 2998"}}, "note": "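Method: 48-hour compound exposure of cells in 96-well plates, five concentrations, linear interpolation of endpoints. The concentration for 50% growth inhibition is given as GI50.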 Calls of active or inactive are those of the source. Rule as the data show it: active = GI50 up to about 1.1 µM and inactive = higher."}
{"compound": "CCC1C(NC(=O)OC)C(=O)N1[C@@H](C)c1ccccc1", "note": "(stereo partly specified)", "values": [{"measurement": "GI50", "setting": "DU-145", "value": "> 100 µM (inactive)"}, {"measurement": "GI50", "setting": "MOLT-4", "value": "> 100 µM (inactive)"}, {"measurement": "GI50", "setting": "UACC-257", "value": "> 100 µM (inactive)"}, {"measurement": "GI50", "setting": "T47D", "value": "> 100 µM (inactive)"}, {"measurement": "GI50", "setting": "SK-MEL-5", "value": "> 100 µM (inactive)"}, {"measurement": "GI50", "setting": "A498", "value": "> 100 µM (inactive)"}, {"measurement": "GI50", "setting": "MDA-N", "value": "> 100 µM (inactive)"}, {"measurement": "GI50", "setting": "SNB-19", "value": "> 100 µM (inactive)"}, {"measurement": "GI50", "setting": "HOP-92", "value": "> 100 µM (inactive)"}, {"measurement": "GI50", "setting": "TK-10", "value": "> 100 µM (inactive)"}, {"measurement": "GI50", "setting": "OVCAR-4", "value": "> 100 µM (inactive)"}, {"measurement": "GI50", "setting": "MDA-MB-231", "value": "> 100 µM (inactive)"}, {"measurement": "GI50", "setting": "CAKI-1", "value": "> 100 µM (inactive)"}, {"measurement": "GI50", "setting": "SF-295", "value": "> 100 µM (inactive)"}, {"measurement": "GI50", "setting": "NCI-H460", "value": "> 100 µM (inactive)"}, {"measurement": "GI50", "setting": "BT-549", "value": "> 100 µM (inactive)"}, {"measurement": "GI50", "setting": "Hs-578T", "value": "> 100 µM (inactive)"}, {"measurement": "GI50", "setting": "SF-539", "value": "> 100 µM (inactive)"}, {"measurement": "GI50", "setting": "SNB-75", "value": "82.6 µM (inactive)"}, {"measurement": "GI50", "setting": "IGROV-1", "value": "> 100 µM (inactive)"}, {"measurement": "GI50", "setting": "UACC-62", "value": "> 100 µM (inactive)"}, {"measurement": "GI50", "setting": "ACHN", "value": "> 100 µM (inactive)"}, {"measurement": "GI50", "setting": "SW-620", "value": "> 100 µM (inactive)"}, {"measurement": "GI50", "setting": "SR", "value": "> 100 µM (inactive)"}, {"measurement": "GI50", "setting": "SK-OV-3", "value": "> 100 µM (inactive)"}, {"measurement": "GI50", "setting": "HCT-15", "value": "> 100", "unit": "µM"}, {"measurement": "GI50", "setting": "SK-MEL-2", "value": "> 100 µM (inactive)"}, {"measurement": "GI50", "setting": "RPMI-8226", "value": "> 100 µM (inactive)"}, {"measurement": "GI50", "setting": "PC-3", "value": "> 100 µM (inactive)"}, {"measurement": "GI50", "setting": "NCI-H522", "value": "> 100 µM (inactive)"}, {"measurement": "GI50", "setting": "MCF7", "value": "> 100 µM (inactive)"}, {"measurement": "GI50", "setting": "NCI/ADR-RES", "value": "> 100 µM (inactive)"}, {"measurement": "GI50", "setting": "OVCAR-8", "value": "> 100 µM (inactive)"}, {"measurement": "GI50", "setting": "Malme-3M", "value": "> 100 µM (inactive)"}, {"measurement": "GI50", "setting": "SN12C", "value": "> 100 µM (inactive)"}, {"measurement": "GI50", "setting": "COLO 205", "value": "> 100 µM (inactive)"}, {"measurement": "GI50", "setting": "LOX IMVI", "value": "> 100 µM (inactive)"}, {"measurement": "GI50", "setting": "EKVX", "value": "> 100 µM (inactive)"}, {"measurement": "GI50", "setting": "HT-29", "value": "> 100 µM (inactive)"}, {"measurement": "GI50", "setting": "NCI-H226", "value": "> 100 µM (inactive)"}, {"measurement": "GI50", "setting": "OVCAR-5", "value": "> 100 µM (inactive)"}, {"measurement": "GI50", "setting": "HCT-116", "value": "> 100 µM (inactive)"}, {"measurement": "GI50", "setting": "M14", "value": "> 100 µM (inactive)"}, {"measurement": "GI50", "setting": "SF-268", "value": "> 100 µM (inactive)"}, {"measurement": "GI50", "setting": "HOP-62", "value": "> 100 µM (inactive)"}, {"measurement": "GI50", "setting": "KM12", "value": "> 100 µM (inactive)"}, {"measurement": "GI50", "setting": "SK-MEL-28", "value": "> 100 µM (inactive)"}, {"measurement": "GI50", "setting": "U-251", "value": "> 100 µM (inactive)"}, {"measurement": "GI50", "setting": "K562", "value": "> 100 µM (inactive)"}, {"measurement": "GI50", "setting": "OVCAR-3", "value": "> 100 µM (inactive)"}, {"measurement": "GI50", "setting": "NCI-H23", "value": "> 100 µM (inactive)"}, {"measurement": "GI50", "setting": "786-0", "value": "> 100 µM (inactive)"}, {"measurement": "GI50", "setting": "UO-31", "value": "> 100 µM (inactive)"}, {"measurement": "GI50", "setting": "RXF 393", "value": "> 100 µM (inactive)"}, {"measurement": "GI50", "setting": "MDA-MB-435", "value": "> 100 µM (inactive)"}, {"measurement": "GI50", "setting": "HCC 2998", "value": "> 100 µM (inactive)"}]}
